Laboratory results: patent US20240391930A1, “SPIROCYCLIC BICYCLIC MODULATORS OF CHOLESTEROL BIOSYNTHESIS AND THEIR USE FOR PROMOTING REMYELINATION” (GENENTECH, INC., priority 2021, published 2024)

Experiments:
[1] = tested on: zymostenol accumulation in EpiSC-derived OPCs (EBP); assay: GC/MS-based sterol profiling (zymostenol accumulation); type: cell-based; conditions: Mus musculus, 24 hours, 8 doses from 0.15 nM to 333 nM, read-out: Zymostenol GCMS EC50
Outline: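 Mouse epiblast stem cell-derived OPCs plated at 100,000 cells/well in growth-factor-free N2B27 and treated 24 h. Sterols extracted by modified Folch wash, silylated with BSTFA, and quantified by electron-impact GC/MS against cholesterol-d7 (zymostenol ion 458). Zymostenol normalised to 24 h 100 nM positive-control reference.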

EpiSC-derived OPCs = assay: In vitro phenotypic screening of OPCs (MBP high-content imaging); type: cell-based; conditions: Mus musculus, 72 h; percentage of MBP-positive oligodendrocytes, 3 days, 0.5 nM to 1000 nM; read-out: OPC EC50
Experimental: To assess effects of treatments on OPCs, all treatments were assayed in two or more independent platings of epiblast stem cell-derived OPCs (EpiSC). EpiSC-derived OPCs were obtained using in vitro differentiation protocols and culture conditions described previously (Najm et al, 2011, Nature Methods). OPCs were expanded and frozen down in aliquots. OPCs were thawed into growth conditions for at least one passage before use in further assays.
EpiSC-derived OPCs were grown and expanded in poly-L-ornithine (PO) and laminin-coated flasks in N2B27 media (DMEM/F12 (Gibco), N2-MAX (R&D Systems), B-27 (ThermoFisher), and GlutaMax (Gibco)) supplemented with FGF2 ([…], R&D systems, 233-FB-025) and PDGF-AA ([…], R&D systems, 233-AA-050) before harvesting for experiments. The cells were seeded onto poly-L-ornithine or poly-D-lysine coated CellCarrier Ultra plates (PerkinElmer) coated with laminin (Sigma, L2020) at a density of 150,000/cm^2 in N2B27 media without growth factors. For dose-response testing, a 1000× compound stock in dimethyl sulphoxide (DMSO) was added to assay plates, resulting in 8-point dose curves with final concentrations between 1000 nM and 0.5 nM. Positive controls and DMSO vehicle controls were included in each assay plate. Cells were incubated under standard conditions (37° C., 5% CO2) for 3 days and fixed with 4% paraformaldehyde (PFA) in phosphate buffered saline (PBS) for 20 min. Fixed plates were washed with PBS, permeabilized with 0.1% Triton X-100, and blocked with 10% donkey serum (v/v) in PBS for 40 min. Then, cells were labelled with MBP antibodies (Abcam, ab7349; 1:200) for 2 h at room temperature, washed with PBS, and stained with Alexa Fluor conjugated secondary antibodies (1:500) for 45 min. Nuclei were visualized by DAPI staining (Sigma; 1 μg/ml), followed by further PBS washes.
Cells and cell culture plates were imaged on the Operetta High Content Imaging and Analysis system (PerkinElmer). Analysis (PerkinElmer Harmony and Columbus software) began by identifying intact nuclei stained by DAPI. The peri-nuclear region of each cell was then cross-referenced with the […] (MBP) stain to identify oligodendrocyte nuclei, and from this the percentage of oligodendrocytes was calculated.

[2] = biological target: T1, human emopamil binding protein and human 7-dehydrocholesterol reductase (hEBP-DHCR7) (Homo sapiens, UniProt Q15125); assay: hEBP-DHCR7 radioligand filtration binding assay; conditions: membranes of HEK293 co-expressing hEBP and DHCR7; [3H] 2-thia-6-azaspiro[3.4]octane radioligand; 8 doses 0.06 to 5000 nM
T1 construct: expressed in transfected cells; host or cells: HEK 293 cells, transient transfection with 2 DNA constructs
Outline: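 Membranes from HEK293 cells transiently co-expressing human EBP and DHCR7 (10 μg/well) incubated 3 h at 22 °C with tritiated 2-thia-6-azaspiro[3.4]octane dioxide radioligand (25 nM stock addition) and compound at 0.06–5000 nM final. Bound ligand collected on PEI-treated GF/B filters, scintillation-counted. IC50 by Hill fit; reported as Ki.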

T1 sequence (Q15125 whole entry): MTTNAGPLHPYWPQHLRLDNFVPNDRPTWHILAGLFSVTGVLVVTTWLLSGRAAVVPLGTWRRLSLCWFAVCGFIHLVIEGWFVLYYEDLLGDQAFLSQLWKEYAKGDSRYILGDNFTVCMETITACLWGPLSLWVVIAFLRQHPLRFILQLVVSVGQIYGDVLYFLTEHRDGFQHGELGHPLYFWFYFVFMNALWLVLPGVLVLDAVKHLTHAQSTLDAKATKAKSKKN

| SMILES | EC50 [1] [nM] | EC50 (EpiSC-derived OPCs) [nM] | Ki [2] [nM] |
| --- | --- | --- | --- |
| CC(C)(C)n1nc(C(F)(F)F)cc1[C@H]1[C@@H]2C[C@@H](N3CCC4(C3)CS(=O)(=O)C4)C[C@@H]21 (single isomer, unassigned) [Compound 57] | 3.5 | 18 | 26 |
| CC(C)n1nc(C(F)(F)F)cc1[C@H]1[C@@H]2C[C@@H](N3CCC4(CC3)CS(=O)(=O)C4)C[C@@H]21 (single isomer, unassigned) [Compound 43*] | 11 | 48 | 50.3 |
| CCn1nc(-c2cccnc2)cc1[C@H]1[C@@H]2C[C@H](N3CCC4(C3)CS(=O)(=O)C4)C[C@@H]21 (single isomer, unassigned) [Compound 65*] | 18 | 65 | 51.9 |
| CCn1nc(-c2cncc(C(F)(F)F)c2)cc1[C@H]1[C@@H]2C[C@H](N3CCC4(CC3)CS(=O)(=O)C4)C[C@@H]21 (single isomer, unassigned) [Compound 54*] | 9.1 | 31 | 32.8 |
| CC(C)n1nc(-c2ccc(C(F)(F)F)nc2)cc1[C@H]1[C@@H]2C[C@H](N3CCC4(C3)CS(=O)(=O)C4)C[C@@H]21 (single isomer, unassigned) [Compound 14] | 2 | 2.9 | 13 |
| CCn1nc(-c2ccnc(C(F)(F)F)c2)cc1[C@H]1[C@@H]2C[C@H](N3CCC4(C3)CS(=O)(=O)C4)C[C@@H]21 [Compound 27, 6-((1R,3r,5S,6r)-6-(1-ethyl-3-(2-(trifluoromethyl)pyridin-4-yl)-1H-pyrazol-5-yl)bicyclo[3.1.0]hexan-3-yl)-2-thia-6-azaspiro[3.4]octane 2,2-dioxide] | 2.3 | 1.6 | 11.6 |
| CC(C)n1nc(-c2cncc(C(F)(F)F)c2)cc1[C@H]1[C@@H]2C[C@H](N3CC[C@]4(CCS(=O)(=O)C4)C3)C[C@@H]21 (single isomer, unassigned) [Compound 10*] | 4.8 | 13 | 19.9 |
| O=S1(=O)CC2(CCN([C@H]3C[C@@H]4[C@H](C3)[C@H]4c3cc(C(F)(F)F)nn3CC(F)F)CC2)C1 (single isomer, unassigned) [Compound 63*] | 19 | 130 | 65.2 |
